These results are taken from PubChem BioAssay (NCI).

Some test systems named below: T-47D breast; SW-620 colon; UO-31 renal; SF-539 CNS; EKVX NSCLC; LOX IMVI melanoma; TK-10 renal; HOP-92 NSCLC; SK-MEL-28 melanoma; HL-60(TB) leukemia.
Assay in all cases: NCI-60 cell line screen, 48 h

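Cells were grown in 96-well plates and exposed to each compound for 48 hours at five concentrations; endpoints were interpolated linearly between bracketing concentrations, or set to the highest concentration if not reached. GI50 marks 50% less growth. Definition used: TGI = concentration required for complete inhibition of growth.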 *1 amine or outer side, *2 acyl side, *3 side chain or, on linkers, in order; H or OH if unused. Where a SMILES comes first, the peptide text is derived from it. [ ]: non-standard residue; d: D form. ξ: configuration not given here. X21 = CC[C@@H](C)C(N[*:1])C(=O)[*:2]; ξR = N=C(N)NCCCC(N)C(=O)O; ξI = CCC(C)C(N)C(=O)O; ξL = CC(C)CC(N)C(=O)O; ξK = NCCCCC(N)C(=O)O; ξV = CC(C)C(N)C(=O)O; ξA = CC(N)C(=O)O Bounds are passed on as bounds.

As for `COc1ccc2c(c1)C1(C(=O)N2)C(C#N)=C(c2ccccc2)Nc2c1c(-c1ccccc1)nn2-c1ccccc1` (stereo not drawn), the GI50 in the test with T-47D breast is 2.94 µM; with SW-620 colon it was 1.98 µM; in the test with UO-31 renal it was 15.8 µM; in the test with SF-539 CNS, 1.75 µM; in the test with EKVX NSCLC, 4.44 µM; with LOX IMVI melanoma, 1.81 µM. Besides, the GI50 in the test on TK-10 renal is 2.41 µM; in the test with HOP-92 NSCLC, 2.34 µM; in the test on SK-MEL-28 melanoma, 2.21 µM; with HL-60(TB) leukemia, 3.68 µM. Also, the TGI with T-47D breast is 12.5 µM; in the test with SW-620 colon it was 4.23 µM; in the test with UO-31 renal it was 30.1 µM; in the test with SF-539 CNS it was 3.65 µM; with EKVX NSCLC, 22.2 µM; in the test with LOX IMVI melanoma it was 3.51 µM. Moreover, the TGI in the test on TK-10 renal was determined as 7.49 µM; with HOP-92 NSCLC, 6.34 µM; in the test on SK-MEL-28 melanoma, 5.4 µM; in the test with HL-60(TB) leukemia it was 15.4 µM.

Regarding `NS(=O)(=O)c1ccc(NC(=O)c2cccc3cc4ccccc4nc23)cc1`, the TGI in the test with T-47D breast is over 100 µM; in the test with SW-620 colon, over 100 µM; in the test with UO-31 renal, over 100 µM; in the test on SF-539 CNS, over 94.3 µM; with EKVX NSCLC it was over 100 µM; in the test on LOX IMVI melanoma, over 97.3 µM. For the same compound, the TGI is over 91.2 µM in the test on TK-10 renal, over 100 µM in the test on HOP-92 NSCLC, over 100 µM in the test with SK-MEL-28 melanoma and over 100 µM in the test on HL-60(TB) leukemia.

As for `N#C/C(=C\c1ccc(Br)cc1)n1nnc2ccccc21`, the GI50 is 0.376 µM in the test with T-47D breast; 0.318 µM in the test with SW-620 colon; 0.449 µM with UO-31 renal; 0.513 µM with SF-539 CNS; 1.41 µM in the test on EKVX NSCLC; 0.319 µM with LOX IMVI melanoma. Besides, the GI50 in the test with TK-10 renal is 2.69 µM; in the test on HOP-92 NSCLC it was 0.23 µM; in the test on SK-MEL-28 melanoma it was 0.94 µM; in the test on HL-60(TB) leukemia, 0.287 µM. The TGI with T-47D breast was 4.74 µM; with SW-620 colon, 1.57 µM; in the test with UO-31 renal, 1.63 µM; in the test on SF-539 CNS it was 1.86 µM; in the test with EKVX NSCLC it was 7.48 µM; in the test on LOX IMVI melanoma it was 1.19 µM. Further, the TGI came out at 6.8 µM in the test with TK-10 renal, 1.58 µM in the test on HOP-92 NSCLC, 3.54 µM with SK-MEL-28 melanoma and 2.04 µM with HL-60(TB) leukemia.

Turning to `CCC(C)C1NC(=O)C(CC(C)C)NC(=O)C(C)NC(=O)C(C(C)C)NC(=O)C(CCCCN)NC(=O)C(CC(C)C)NC(=O)C(C(C)C)NC(=O)[C@H](C)NC(=O)C(C(C)CC)NC(=O)C(CCCN=C(N)N)NC(=O)C(CCCCN)NC(=O)C(CCCN=C(N)N)NC(=O)C(CCCCN)NC(=O)C([C@H](C)CC)NC(=O)C(CCCCN)NC1=O` (stereo partly drawn) (cyclo(A[ξV][ξL][ξK][ξV][ξA][ξL][ξI][ξK][X21][ξK][ξR][ξK][ξR][ξI])), the GI50 was 0.756 µM with T-47D breast; 1.56 µM in the test on SW-620 colon; 1.37 µM in the test with UO-31 renal; 1.84 µM with SF-539 CNS; 0.61 µM with EKVX NSCLC; 1.62 µM with LOX IMVI melanoma. For the same compound, the GI50 was 1.62 µM in the test with TK-10 renal, 1.14 µM in the test on HOP-92 NSCLC, 1.82 µM in the test on SK-MEL-28 melanoma and 1.77 µM with HL-60(TB) leukemia. Besides, the TGI with T-47D breast was 4.28 µM; in the test with SW-620 colon, 3.39 µM; in the test with UO-31 renal, 2.67 µM; in the test on SF-539 CNS it was 3.61 µM; in the test on EKVX NSCLC, 2.9 µM; in the test with LOX IMVI melanoma, 3.03 µM. Further, the TGI in the test on TK-10 renal stood at 3.82 µM; in the test on HOP-92 NSCLC, 2.91 µM; in the test with SK-MEL-28 melanoma, 4.34 µM; in the test on HL-60(TB) leukemia, 4.44 µM.

In the case of `CS(=O)(=O)OCCN(CCOS(C)(=O)=O)c1ccc(C=O)cc1`, the TGI was over 71.6 µM in the test with T-47D breast; 68.8 µM with SW-620 colon; 3.09 µM in the test with UO-31 renal; 17.4 µM with SF-539 CNS; 25.4 µM in the test with EKVX NSCLC; 21.1 µM in the test with LOX IMVI melanoma. Also, the TGI in the test with TK-10 renal turned out to be 17 µM; in the test on HOP-92 NSCLC it was 44.5 µM; in the test on SK-MEL-28 melanoma it was 52.6 µM; with HL-60(TB) leukemia, 35.4 µM.

Take `C=C1C(=O)OC2CC(C)C3C=CC(=O)C3CC12` (stereo not drawn): the TGI came out at 5.77 µM in the test on T-47D breast; 3.69 µM in the test on SW-620 colon; 8.41 µM in the test with UO-31 renal; 4.92 µM in the test on SF-539 CNS; 26.3 µM in the test with EKVX NSCLC; 2.69 µM in the test on LOX IMVI melanoma. Besides, the TGI with TK-10 renal came out at 8.07 µM; in the test with HOP-92 NSCLC, 4.04 µM; in the test with SK-MEL-28 melanoma, 4.16 µM; with HL-60(TB) leukemia it was 4.95 µM.

Take `C=CC1=C(C)C2=NC1=CC1=NC(=CC3=C(C)C4=C(O)C(C(=O)OC)C(=C5NC(=C2)C(C)C5CCC(=O)OC)C4=N3)C(CC)=C1C` (stereo not drawn): the TGI in the test on T-47D breast, in the test on SW-620 colon, with UO-31 renal, in the test with SF-539 CNS, in the test on EKVX NSCLC and in the test with LOX IMVI melanoma was over 100 µM throughout. Besides, the TGI in the test on TK-10 renal, with HOP-92 NSCLC, in the test with SK-MEL-28 melanoma and in the test with HL-60(TB) leukemia was over 100 µM each time.

In the case of `CCOC(=O)c1cc(C(=O)c2cc(OC)c(OC)c(OC)c2)n2ccccc12`, the GI50 in the test on T-47D breast was 1.14 µM; with SW-620 colon it was 0.0504 µM; in the test with SF-539 CNS, 0.103 µM; with EKVX NSCLC, 0.342 µM; in the test on LOX IMVI melanoma, 0.133 µM; with TK-10 renal, 11.6 µM. Moreover, the GI50 was 25.6 µM in the test on HOP-92 NSCLC, 6.09 µM in the test with SK-MEL-28 melanoma and 0.0586 µM in the test on HL-60(TB) leukemia. Also, the TGI in the test on T-47D breast was over 100 µM; in the test on SW-620 colon, over 100 µM; in the test with UO-31 renal, over 100 µM; in the test with SF-539 CNS, 0.863 µM; with EKVX NSCLC, over 100 µM; with LOX IMVI melanoma it was over 100 µM. Further, the TGI with TK-10 renal, in the test on HOP-92 NSCLC and with SK-MEL-28 melanoma was over 100 µM each time.

On to `COc1ccccc1/C=C/C(=O)/C=C/c1ccccc1OC`, for which the GI50 with T-47D breast was 1.47 µM; in the test on SW-620 colon it was 1.51 µM; in the test with UO-31 renal, 1.83 µM; in the test on SF-539 CNS it was 2.82 µM; with EKVX NSCLC it was 2.42 µM; in the test on LOX IMVI melanoma it was 1.53 µM. In addition, the GI50 with TK-10 renal is 3.52 µM; in the test with HOP-92 NSCLC, 2.1 µM; with SK-MEL-28 melanoma it was 1.67 µM; in the test on HL-60(TB) leukemia it was 2.69 µM. Also, the TGI with T-47D breast came to 8.4 µM; with SW-620 colon, 3.37 µM; in the test with UO-31 renal, 3.33 µM; with SF-539 CNS it was 6.33 µM; with EKVX NSCLC, 6.22 µM; in the test with LOX IMVI melanoma it was 3.01 µM. Also, the TGI in the test on TK-10 renal was 8.83 µM; in the test with HOP-92 NSCLC, 5.04 µM; in the test on SK-MEL-28 melanoma, 3.18 µM; with HL-60(TB) leukemia, 8.45 µM.
